What is called IC50 is the concentration that inhibits the measured activity by half.

The first experiment deals with NCI-H1581 cells. Nature of the experiment: Cell proliferation assay on NCI-H1581 (Table 7). The note with it: Homo sapiens, NCI-H1581, read-out: IC50(nM) value of compounds on NCI-H1581 cells. The class given is cell-based, human. An excerpt:
Test method: adding the appropriate volume of whole medium and the cells was suspended.
Turning to `COc1cc(OC)c(Cl)c(-c2cc3cnc(Nc4ccc(N5CCN6CCC[C@H]6C5)cc4)nc3n3cnnc23)c1` [Compound 25, (S)-6-(2-chloro-3,5-dimethoxyphenyl)-N-(4-(hexahydropyrrolo[1,2-a]pyrazin-2(1H)-yl)phenyl)-[1,2,4]triazolo[4′,3′:1,6]pyrido[2,3-d]pyrimidin-2-amine], the IC50 was 1 to 10 nM.
Regarding `COc1cc(OC)c(Cl)c(-c2cc3cnc(Nc4ccc(OCCN5CCCC5)cc4)nc3n3cnnc23)c1` [Compound 28, 6-(2-chloro-3,5-dimethoxyphenyl)-N-(4-(2-(pyrrolidin-1-yl)ethoxy)phenyl)-[1,2,4]triazolo[4′,3′:1,6]pyrido[2,3-d]pyrimidin-2-amine], the IC50 stood at 2.9 nM.
For `COc1cc(OC)c(Cl)c(-c2cc3cnc(Nc4ccc(CN5CCOCC5)cc4)nc3n3cnnc23)c1` [Compound 45, 6-(2-chloro-3,5-dimethoxyphenyl)-N-(4-(morpholinomethyl)phenyl)-[1,2,4]triazolo[4′,3′:1,6]pyrido[2,3-d]pyrimidin-2-amine], the IC50 was 0.9 nM.
On the same count and under the same terms, to `COc1cc(OC)c(Cl)c(-c2cc3cnc(Nc4ccc(C(=O)N5C[C@@H](C)N[C@@H](C)C5)cc4)nc3n3cnnc23)c1` [Compound 59, (4-((6-(2-chloro-3,5-dimethoxyphenyl)-[1,2,4]triazolo[4′,3′:1,6]pyrido[2,3-d]pyrimidin-2-yl)amino)phenyl)((3 S,5R)-3,5-dimethylpiperazin-1-yl)methanone] belongs 1.8 nM.

The same experiment, now with this note: Homo sapiens, NCI-H1581; CellTiter 96 AQueous (144 hrs) or CellTiter Glo (96 hrs); class symbols; read-out: IC50(nM) value of compounds on NCI-H1581 cells.
Take `COc1cc(OC)c(Cl)c(-c2cc3cnc(Nc4ccc(N5CCN(C6CCN(C)CC6)CC5)cc4)nc3n3cnnc23)c1` [Compound 22, 6-(2-chloro-3,5-dimethoxyphenyl)-N-(4-(4-(1-methylpiperidin-4-yl)piperazin-1-yl)phenyl)-[1,2,4]triazolo[4′,3′:1,6]pyrido[2,3-d]pyrimidin-2-amine]: the IC50 was in the range of 1 to 10 nM.
Take `COc1cc(OC)c(Cl)c(-c2cc3cnc(Nc4ccc(OCCN5CCOCC5)cc4)nc3n3cnnc23)c1` [Compound 33, 6-(2-chloro-3,5-dimethoxyphenyl)-N-(4-(2-morpholinoethoxy)phenyl)-[1,2,4]triazolo[4′,3′:1,6]pyrido[2,3-d]pyrimidin-2-amine]: the IC50 lay in the range of 1 to 10 nM.
For `COc1cc(OC)c(Cl)c(-c2cc3cnc(Nc4ccc(C5CCN(C)CC5)cc4)nc3n3cnnc23)c1` [Compound 37, 6-(2-chloro-3,5-dimethoxyphenyl)-N-(4-(1-methylpiperidin-4-yl)phenyl)-[1,2,4]triazolo[4′,3′:1,6]pyrido[2,3-d]pyrimidin-2-amine], the IC50 was 1 to 10 nM.
Same read-out and setting: then `COc1cc(OC)c(Cl)c(-c2cc3cnc(Nc4cccc(N5CCN6CCC[C@@H]6C5)c4)nc3n3cnnc23)c1` [Compound 38, (R)-6-(2-chloro-3,5-dimethoxyphenyl)-N-(3-(hexahydropyrrolo[1,2-a]pyrazin-2(1H)-yl)phenyl)-[1,2,4]triazolo[4′,3′:1,6]pyrido[2,3-d]pyrimidin-2-amine], with 1 to 10 nM; and `COc1cc(OC)c(Cl)c(-c2cc3cnc(Nc4ccc(N5CC(=O)N6CCC[C@@H]6C5)cc4)nc3n3cnnc23)c1` [Compound 40, (R)-2-(4-((6-(2-chloro-3,5-dimethoxyphenyl)-[1,2,4]triazolo[4′,3′:1,6]pyrido[2,3-d]pyrimidin-2-yl)amino)phenyl)hexahydropyrrolo[1,2-a]pyrazin-4(1H)-one], with more than 100 nM.
`CNC1CCN(c2ccc(Nc3ncc4cc(-c5cc(OC)cc(OC)c5Cl)c5nncn5c4n3)cc2)CC1` [Compound 49, 6-(2-chloro-3,5-dimethoxyphenyl)-N-(4-(4-(methylamino)piperidin-1-yl)phenyl)-[1,2,4]triazolo[4′,3′:1,6]pyrido[2,3-d]pyrimidin-2-amine]: the IC50 was less than 1 nM.
On the same count and under the same terms, to `COc1cc(OC)c(Cl)c(-c2cc3cnc(Nc4ccc(N5C[C@@H](C)N[C@@H](C)C5)c(OC)c4)nc3n3cnnc23)c1` [Compound 55, 6-(2-chloro-3,5-dimethoxyphenyl)-N-(4-((3 S,5R)-3,5-dimethylpiperazin-1-yl)-3-methoxyphenyl)-[1,2,4]triazolo[4′,3′:1,6]pyrido[2,3-d]pyrimidin-2-amine] belongs 1 to 10 nM.
